The values that follow come from article PMC10098121, “Amphipathic barbiturates as marine product mimics with cytolytic and immunogenic effects on head and neck squamous cell carcinoma cell lines” (Frontiers in Pharmacology, 2023).

As usually defined, the MIC is the smallest concentration in the dilution series that meets the test's criterion for growth inhibition.

The test system of one assay is UT-SCC-24A. Description: High throughput drug screening (CellTiter-Glo, DSS). The assay is classed as cell-based, human. The settings on record: for drug sensitivity score (DSS): 72 h, 10-100,000 nM, myogel, non-irradiated; for delta DSS (ΔDSS): DSS irradiated (2 Gy) minus DSS non-irradiated, >5 synergy, <–5 antagonism. The protocol:
(§1) The MPMs were screened against a panel of […] different cell lines (HSC-3, UT-SCC-8, UT-SCC-24A, UT-SCC-24B, UT-SCC-42A, UT-SCC-42B and NOF) at the High Throughput Biomedicine Unit (HTB) at the Institute for Molecular Medicine Finland (FIMM). On day 1, black-walled 384-well plates were coated with 5 µl diluted myogel (0.5 mg/ml) per well using an automated reagent dispenser (MultiFlo FX, BioTek, Winooski, VT, United States). On day 2, 500 cells per well were seeded in 20 µl of complete media using the MultiFlo FX (BioTek), and the cells were left to adhere overnight. On day 3, the MPMs, cisplatin, DMSO and Benzethonium chloride were added to the cells using an automatic liquid handler (Echo 550, Labcyte Inc., San Jose, CA, United States). Cisplatin and the MPMs were added to yield five different concentrations in a ten-fold dilution series ranging from 10 to 100,000 nM. Each concentration was tested in triplicate wells. DMSO (0.1%) and benzethonium chloride (100 µM) served as negative and positive control, respectively. Three hours later, some of the plates were irradiated with 2 Gy in a gamma irradiator (OB29/4, STS, Braunschweig, Germany). All plates were taken to the irradiation room to ensure similar handling of the plates. 72 h later, the plates were cooled to room temperature before 25 µl of CellTiter-Glo 2.0 reagent (Promega, Madison, WI, USA) was added to each well using the MultiFlo FX (BioTek). Next, the plates were centrifuged for 5 min at 1,000 rpm before the luminescence signal was measured with the PHERAstar FS HT reader (BMG LABTECH GmbH, Ortenberg, Germany). The raw data was analyzed with the Breeze software (https://breeze.fmm.fi), which normalized the luminescence signal from treated cells against the signal from negative and positive control cells to calculate the percentage of inhibition and generate dose-response curves, which were then used to calculate drug sensitivity scores (DSS). The DSS is a parameter which combines the IC50, the slope of the dose-response curve, and the minimum and maximum responses into a single metric, as previously described ([Yadav et al., 2014]). Quality control was performed by calculation of the Z′-factor, which was >0.7 for all cell lines, indicating high quality of the assay ([Zhang et al., 1999]).
(In ATP-based viability assays light output follows the ATP content of the culture.)

In the next assay the test system is UT-SCC-8. The description is as above. Conditions: for drug sensitivity score (DSS): UT-SCC-8, 72 h, 10-100,000 nM, myogel, non-irradiated; for delta DSS (ΔDSS): UT-SCC-8, DSS irradiated (2 Gy) minus DSS non-irradiated, >5 synergy, <–5 antagonism. The assay is classed as cell-based, human. The protocol: as §1
Another assay concerns UT-SCC-42B. The assay is described as above. It counts as cell-based, human. The settings on record: for drug sensitivity score (DSS): 72 h, 10-100,000 nM, myogel, non-irradiated; for delta DSS (ΔDSS): DSS irradiated (2 Gy) minus DSS non-irradiated, >5 synergy, <–5 antagonism. Here is the method: as §1
In another assay the test system is HSC-3. Described as above. It counts as cell-based, human. The settings on record: for drug sensitivity score (DSS): HSC-3, 72 h, 10-100,000 nM, myogel, non-irradiated; for delta DSS (ΔDSS): HSC-3, DSS irradiated (2 Gy) minus DSS non-irradiated, >5 synergy, <–5 antagonism. The protocol: as §1
In the next assay the test system is UT-SCC-106A. Described as above. The assay is classed as cell-based, human. Conditions: for drug sensitivity score (DSS): 72 h, 10-100,000 nM, myogel, non-irradiated; for delta DSS (ΔDSS): DSS irradiated (2 Gy) minus DSS non-irradiated, >5 synergy, <–5 antagonism. The protocol:
as §1

For the next assay, the system named is UT-SCC-24B. The assay is described as above. The assay is classed as cell-based, human. Conditions: for drug sensitivity score (DSS): 72 h, 10-100,000 nM, myogel, non-irradiated; for delta DSS (ΔDSS): DSS irradiated (2 Gy) minus DSS non-irradiated, >5 synergy, <–5 antagonism. Here is the method:
as §1

Assay [1] concerns NOF (normal oral fibroblasts). The description is as above. The settings on record: for drug sensitivity score (DSS): 72 h, 10-100,000 nM, myogel, non-irradiated; for delta DSS (ΔDSS): DSS irradiated (2 Gy) minus DSS non-irradiated, >5 synergy, <–5 antagonism. The assay is classed as cell-based, human. Here is the method: as §1
Another assay deals with UT-SCC-42A. The assay is described as above. The assay is classed as cell-based, human. Conditions: for drug sensitivity score (DSS): 72 h, 10-100,000 nM, myogel, non-irradiated; for delta DSS (ΔDSS): DSS irradiated (2 Gy) minus DSS non-irradiated, >5 synergy, <–5 antagonism. Here is the method: as §1
For another assay, the system named is Bacillus subtilis 168. As to the kind of experiment: Bacterial minimum inhibitory concentration (broth microdilution). The assay is classed as cell-based. The settings on record: Bacillus subtilis 168, 48 h, 35 °C, di-TFA salts. Here is the method:
(§2) Method for determination of bacterial minimum inhibitory concentration (MIC) Stock solutions of the water-soluble compounds were prepared by dissolving them in ultrapure water (Milli-Q H2O, Millipore, MA, USA). The less water-soluble compounds were first dissolved in 25 - 50 µL 100% DMSO before further dilution with ultrapure water. The DMSO concentration was always less than 1% in the working concentration of each compound. A modified broth microdilution susceptibility test based on the CLSI M07-A9 protocol, [2] was used to determine minimal inhibitory concentrations (MIC). Briefly, the test compounds were two-fold diluted with ultrapure water in polystyrene 96-well flat-bottom microplates (NUNC, Roskilde, Denmark). The bacterial inoculum was diluted to 2.5 - 3 x 10^4 cells/mL in Mueller-Hinton broth (MHB, Difco Laboratories, USA) and added to the different diluted compounds in a ratio of 1:1. Positive control (ciprofloxacin, Sigma-Aldrich, USA), negative control (bacteria + water), and media control (media + water) were included in each experiment. The microplates were incubated for 48 h at 35 °C in an EnVision microplate reader (PerkinElmer, Waltham, MA, USA). The lowest concentration of compounds that caused no bacterial growth, as determined by optical density (OD600) measurements, was defined as the MIC value. All compounds were tested in 3 technical replicates.
(§3) Supplementary Video S1. HSC-3 cells were seeded at 100% confluence and a standard scratch wound migration assay was performed. The cells were imaged every 2 hours for 24 hours. The video
On the technique in general: Dilution methods test growth across graded concentrations, often in twofold steps.

Assay [2] has as its system Staphylococcus aureus ATCC 9144. Described as above. It counts as cell-based. The settings on record: ATCC9144; Staphylococcus aureus ATCC 9144, 48 h, 35 °C, di-TFA salts. Here is the method:
as §2, §3

In assay [3] the test system is Pseudomonas aeruginosa ATCC 27853. The description is as above. The settings on record: ATCC27853; Pseudomonas aeruginosa ATCC 27853, 48 h, 35 °C, di-TFA salts. The assay is classed as cell-based. The protocol: as §2, §3
Assay [4] concerns Escherichia coli ATCC 25922. The assay is described as above. Conditions: ATCC25922; Escherichia coli ATCC 25922, 48 h, 35 °C, di-TFA salts. The assay is classed as cell-based. The protocol:
as §2, §3

On to `CN(C)CCCN1C(=O)N(CCCN(C)C)C(=O)C(CCCc2ccccc2)(CCCc2ccccc2)C1=O` [MPM-3:2], for which the “drug sensitivity score (DSS)” value is reported as 17,9 in the assay on UT-SCC-24A; 17,8 in the assay on UT-SCC-8; 15,7 with UT-SCC-42B; 17,9 in the assay on HSC-3; 18,6 in the assay with UT-SCC-106A; 18,4 with UT-SCC-24B. Moreover, the “drug sensitivity score (DSS)” value in assay [1] is recorded as 19,3; in the assay on UT-SCC-42A it was 16. Besides, the “delta DSS (ΔDSS)” value in the assay on UT-SCC-24A is reported as -0,2; in the assay on UT-SCC-8 it was 0,1; in the assay on UT-SCC-42B it was 0,3; with HSC-3 it was -0,2; with UT-SCC-106A, -0,2; in the assay with UT-SCC-24B it was 0,1. Moreover, the “delta DSS (ΔDSS)” value is on record as -1,6 in assay [1] and 0,6 with UT-SCC-42A. The MIC in the assay on Bacillus subtilis 168 was 16 µg/mL; in assay [2], more than 64 µg/mL; in [3] it was more than 64 µg/mL; in assay [4], 32 µg/mL.

Consider `NCCCCCCN1C(=O)N(CCCCCCN)C(=O)C(CCCc2ccccc2)(CCCc2ccccc2)C1=O` [MPM-6:0], for which the “drug sensitivity score (DSS)” value in the assay with UT-SCC-24A is listed as 18,6; with UT-SCC-8, 19,5; in the assay on UT-SCC-42B, 18,4; with HSC-3, 17,8; in the assay with UT-SCC-106A, 17,9; in the assay on UT-SCC-24B, 18,3. For the same molecule, the “drug sensitivity score (DSS)” value is 18 in assay [1] and 17,9 with UT-SCC-42A. Also, the “delta DSS (ΔDSS)” value in the assay on UT-SCC-24A is on record as -0,2; in the assay with UT-SCC-8 it was -0,8; in the assay with UT-SCC-42B it was -0,5; in the assay on HSC-3 it was 0,7; in the assay with UT-SCC-106A, -0,4; in the assay with UT-SCC-24B, 0,1. In addition, the “delta DSS (ΔDSS)” value in [1] is given as -0,3; in the assay on UT-SCC-42A, 0,3. In addition, the MIC stood at 2 µg/mL in the assay with Bacillus subtilis 168, 4 µg/mL in assay [2], 8 µg/mL in assay [3] and 8 µg/mL in assay [4].

`N.N.[Cl][Pt][Cl]` [Cisplatin, cisplatin, reference compound]: the “drug sensitivity score (DSS)” value is listed as 8,9 in the assay with UT-SCC-24A; 16,8 in the assay with UT-SCC-8; 7,7 in the assay on UT-SCC-42B; 15,6 in the assay on HSC-3; 9 with UT-SCC-106A; 11,6 in the assay with UT-SCC-24B. Besides, the “drug sensitivity score (DSS)” value in assay [1] is 9,6; in the assay on UT-SCC-42A, 7,1. The “delta DSS (ΔDSS)” value is given as -0,9 in the assay on UT-SCC-24A; -0,8 in the assay with UT-SCC-8; -0,6 in the assay with UT-SCC-42B; -0,8 in the assay with HSC-3; 0,3 with UT-SCC-106A; 0,7 in the assay on UT-SCC-24B. Further, the “delta DSS (ΔDSS)” value in [1] is reported as -1,9; in the assay on UT-SCC-42A it was -0,1.

Consider `NCCN1C(=O)N(CCN)C(=O)C(CCCc2ccccc2)(CCCc2ccccc2)C1=O` [MPM-2:0], for which the “drug sensitivity score (DSS)” value in the assay on UT-SCC-24A was 18,7; in the assay with UT-SCC-8 it was 19,2; in the assay on UT-SCC-42B it was 18,7; with HSC-3, 19; in the assay on UT-SCC-106A, 18; in the assay with UT-SCC-24B, 18,3. Also, the entries for the “drug sensitivity score (DSS)” value (in assay [1]; in the assay on UT-SCC-42A) were 18,3 and 19, respectively. For the same molecule, the “delta DSS (ΔDSS)” value with UT-SCC-24A is listed as -0,7; in the assay on UT-SCC-8 it was 0,6; in the assay with UT-SCC-42B, -0,1; in the assay on HSC-3, -0,7; in the assay on UT-SCC-106A, -0,5; in the assay on UT-SCC-24B, -0,1. Further, the “delta DSS (ΔDSS)” value (in [1]; in the assay on UT-SCC-42A) was -0,7 in each case. In addition, the MIC in the assay with Bacillus subtilis 168 is 8 µg/mL; in assay [2], 8 µg/mL; in [3], 16 µg/mL; in assay [4] it was 16 µg/mL.

For `CN(C)CCCCN1C(=O)N(CCCCN(C)C)C(=O)C(CCCc2ccccc2)(CCCc2ccccc2)C1=O` [MPM-4:2], the “drug sensitivity score (DSS)” value with UT-SCC-24A is 18,4; in the assay with UT-SCC-8 it was 18,1; in the assay on UT-SCC-42B it was 16,6; in the assay on HSC-3, 18,2; in the assay on UT-SCC-106A, 19,5; with UT-SCC-24B, 18,9. The entries for the “drug sensitivity score (DSS)” value (in assay [1]; with UT-SCC-42A) were 22,6 and 17, respectively. Also, the “delta DSS (ΔDSS)” value in the assay on UT-SCC-24A is -0,6; in the assay on UT-SCC-8 it was 0,5; with UT-SCC-42B, -0,4; in the assay with HSC-3, 0,3; with UT-SCC-106A, -0,2; in the assay with UT-SCC-24B, -0,5. The “delta DSS (ΔDSS)” value in assay [1] is on record as 1,2; in the assay on UT-SCC-42A, 0,4. Besides, the MIC in the assay on Bacillus subtilis 168 is 16 µg/mL; in assay [2], 64 µg/mL; in [3] it was more than 64 µg/mL; in assay [4], 32 µg/mL.
